We go through three molecules from patent publication US20070167408A1, “NOVEL ALKYL PHOSPHOLIPID DERIVATIVES WITH REDUCED CYTOTOXICITY AND USES THEREOF” (ZENTARIS GmbH, priority 2005, published 2007).

Molecules are shown by their SMILES. Values after ≈ are worked out from the molar mass of the structure shown. Where only a bound is given, the exact number is not on record here.

Experiment [1] concerns Bacteroides fragilis DSM 2151 (ATCC 25285). Description: Anti-bacterial bouillon microdilution assay (MIC), bacterium E. The class given is cell-based. The conditions noted are these: anaerob, 24 h. As to the method:
(§1) Selected compounds of the invention were tested in a bouillon microdilution assay method according to the DIN 58940 (www.din.de) guidelines for determination of susceptibility of bacterial strains with regard to cell growth inhibition. The assay method quantifies bacterial cell growth which corresponds to the turbidity of the liquid culture medium by photometric measurement carried out at 595 nm.
(§2) The method of MIC determination was performed according to DIN 58940-5. The volumina were adapted according to the microdilution method as described in DIN 58940-7 guideline.
(§3) Dependent on water solubility, compounds of the invention were dissolved either in water or ethanol in a concentration of 10 mg/ml. Subsequently, the stock was further diluted in water to a concentration of 512 μg/ml. The following serial dilutions (factor 2) were performed in water resulting in the following […] testing concentrations: 256 μg/ml, 128 μg/ml, 64 μg/ml, 32 μg/ml, 16 μg/ml, 8 μg/ml, 4 μg/ml, 2 μg/ml, 1 μg/ml, 0.5 μg/ml, 0.25 μg/ml and 0.125 μg/ml. Diluted compounds of the invention were transferred in 100 μl volume to the microtiter plate wells.
(§4) Pre-cultures of bacteria were grown in appropriate liquid media (refer to ATCC webpage, www.atcc.org) and afterwards were inoculated in corresponding liquid medium. 100 μl of the inoculums [adjusted to an amount of app. 1×10^6 microorganisms per ml (range of 10^5-10^8 microorganisms per ml)] were added to each of the testing compound concentrations and cultivated under the appropriate conditions.
(§5) Before and after incubation, bacterial growth was determined by photometric analysis against a positive control containing growing bacteria without compound and a sterile/negative control containing only the medium.

Experiment [2] has as its system PC3 (human prostate carcinoma) cells. Put plainly: XTT cytotoxicity assay, PC3 cells. The class given is cell-based. The conditions noted are these: Homo sapiens, PC-3; 31.6 μM, second set of experiments; read-out: PC3 % INH [31.6 μM]. On the procedure:
(§6) Cytotoxicity of selected compounds of the invention against different mammalian cell lines was assessed as follows.
(§7) Human tumor cell lines KB/HeLa (ATCC CCL17, human cervix carcinoma), PC3 (ATCC CRL1435, human prostate carcinoma) and RKOp21 (human colon adenocarcinoma; Schmidt et al., Oncogene 2000, 19: 2423-2429) cells were used in an automated XTT screening assay for the assessment of cytotoxicity.
(§8) The XTT assay quantifies cellular metabolic activity which correlates with cell viability and cell number. Test compounds (selected compounds of the invention and known substances as controls) are dissolved in culture medium at 600 μM and added to the tumor cells in 10 different concentrations in a semi-logarithmic fashion starting from 100 μM as highest concentration.
(§9) In a second set of experiments employing PC3, RKOp21 and SKOV-3 (ATCC HTB-77, human ovary adenocarcinoma) cells, test and reference compounds were dissolved in 70% Ethanol/30% H2O in a stock concentration of 10 mM and diluted in cell culture medium to yield either 31.6 μM (PC3 and RKOp21) or 100 μM (SKOV-3) final concentration.
(§10) 48 h later cellular metabolic activity of cells treated with test compounds is quantified by measurement of the absorbance at 490 nm (conversion of XTT dye) in comparison to untreated control cells (100% viability).
(§11) KB/HeLa and PC3 cells were cultivated in RPMI 1640 medium (Gibco, Cat. No. 42401-018) supplemented with 10% heat inactivated fetal calf serum (FCS, Biochrom AG, Cat. No. S0115), 2 mM L-glutamine (Gibco, Cat. No. 25030-24) and 2% Penicillin-Streptomycin (PenStrep, Gibco, Cat. No. 15140-122). RKOp21 cells were grown in DMEM+GlutaMAXTM-I medium (Gibco, Cat. No. 61965-026) supplemented with 10% heat inactivated fetal calf serum (FCS, Biochrom AG, Cat. No. S0115), 2 mM L-glutamine (Gibco, Cat. No. 25030-24), 2% Penicillin-Streptomycin (PenStrep, Gibco, Cat. No. 15140-122) and 1% 1M HEPES (Gibco, Cat. No. 15630-056). All cells were cultured at 37° C. in 5% CO2 humidified air.
(§12) On the first day of the experiment cells were harvested from exponential phase cultures by trypsination, counted and plated into 96 well flat-bottom micro titer plates depending on the cell line as listed below:
(§13) After a 24 h recovery to allow the cells to resume exponential growth, the test compounds were diluted immediately prior to use and transferred in 25 μl volume to the wells.
(§14) Following 2 days of continuous drug exposure 50 μl of freshly prepared XTT-PMS solution {2% 0.386 mg/ml PMS (N-Methyl Dibenzopyrazine Methylsulphate; Sigma, Cat. No. P9625) in PBS+98% 1 mg/ml XTT (Sodium 2,3-bis(2-methoxy-4-nitro-5-sulfophenyl)-5-[(phenylamino)carbonyl]-2H-Tetrazolium; Serva, Cat. No. 38450) in RPMI 1640 medium without phenol red} was added to the wells. To measure the proportion of living cells, the cells were incubated for 3 h with XTT-PMS reagent at 37° C., 5% CO2, humidified atmosphere allowing to form the formazan salt. The amount of soluble formazan salt produced by cellular reduction of XTT is quantified by measuring the absorbance at 490 nm using the Biomek® 2000 ELISA plate reader. %-inhibition (cytotoxicity) of each test compound was calculated in relation to untreated control cells. Inhibition curves were generated and IC50 values calculated by using GraphPad Prism.

The test system of experiment [3] is RKOp21 (human colon adenocarcinoma) cells. Description: XTT cytotoxicity assay, RKOp21 cells. The class given is cell-based. The conditions noted are these: Homo sapiens; 31.6 μM, second set of experiments; read-out: RKOp21 % INH [31.6 μM]. As to the method: as §6, §7, §8, §9, §10, §11, §12, §13, §14
The subject of experiment [4] is SKOV-3 (human ovary adenocarcinoma) cells. Put plainly: XTT cytotoxicity assay, SKOV-3 cells. The class given is cell-based. The conditions noted are these: Homo sapiens, SK-OV-3, second set of experiments, read-out: SKOV-3 % INH [100 μM]. As to the method:
On the first day of the experiment cells were harvested from exponential phase cultures by trypsination, counted and plated into 96 well flat-bottom micro titer plates depending on the cell line as listed below: [table] After a 24 h recovery to allow the cells to resume exponential growth, the test compounds were diluted immediately prior to use and transferred in 25 μl volume to the wells. Following 2 days of continuous drug exposure 50 μl of freshly prepared XTT-PMS solution {2% 0.386 mg/ml PMS (N-Methyl Dibenzopyrazine Methylsulphate; Sigma, Cat. No. […] Serva, Cat. No. 38450) in RPMI 1640 medium without phenol red} was added to the wells. To measure the proportion of living cells, the cells were incubated for 3 h with XTT-PMS reagent at 37° C., 5% CO2, humidified atmosphere allowing to form the formazan salt. […] Inhibition curves were generated and IC50 values calculated by using GraphPad Prism.

In experiment [5] the test system is PC3, RKOp21 and SKOV-3 cell lines. Description: XTT cytotoxicity assay, mean over all three cell lines. The conditions noted are these: mean value over all three cell lines. The class given is cell-based, human. On the procedure:
Following 2 days of continuous drug exposure 50 μl of freshly prepared XTT-PMS solution {2% 0.386 mg/ml PMS (N-Methyl Dibenzopyrazine Methylsulphate; Sigma, Cat. No. […] Serva, Cat. No. 38450) in RPMI 1640 medium without phenol red} was added to the wells. To measure the proportion of living cells, the cells were incubated for 3 h with XTT-PMS reagent at 37° C., 5% CO2, humidified atmosphere allowing to form the formazan salt. […] Inhibition curves were generated and IC50 values calculated by using GraphPad Prism. In the following table 7 cytotoxicity results (% inhibition of cell growth) obtained in the second set of experiments for selected compounds of the invention are presented in comparison to examples of the prior art (perifosine, miltefosine). The results presented are individual values for the respective cell line as well as the mean value over all three cell lines tested.

The subject of experiment [6] is Moraxella catarrhalis DMS 11994 (ATCC 43617). Description: Anti-bacterial bouillon microdilution assay (MIC), bacterium D. The class given is cell-based. Particulars: ATCC43617, 24 h. As to the method:
as §1, §2, §3, §4, §5

For experiment [7], the system named is Aspergillus fumigatus ATCC 204305. Description: Anti-fungal broth microdilution (MIC), fungus A. Particulars: filamentous protocol, more than 50% growth inhibition, 48 to 72 h. The experiment is classed as cell-based. As to the method:
(§15) Anti-fungal activity of selected compounds of the invention was assessed by means of anti-fungal susceptibility tests as follows.
(§16) The antifungal activities of the compounds of the invention against different fungi were measured according to standard broth microdilution methods of the US National Committee for Clinical Laboratory standards (NCCLS) for yeasts (NCCLS document M27-A, 1997) and filamentous fungi (NCCLS document M38-A, 2002).
(§17) Stock solutions of compounds of the invention were freshly prepared on the days of experiments equal to 1.28 mg/10 ml media. Serial dilutions were performed to achieve the following testing concentrations: 64 μg/ml, 32 μg/ml, 16 μg/ml, 8 μg/ml, 4 μg/ml, 2 μg/ml, 1 μg/ml, 0.5 μg/ml, 0.25 μg/ml and 0.125 μg/ml.
(§18) An inoculum of 10^6 CFU/ml of the fungi strain was prepared in the appropriate medium and transferred to test tubes for incubation.
(§19) The method is used to determine the minimum inhibitory concentrations (MIC) of drugs on fungi strains. […] For the filamentous fungi protocol, MIC determination took place after 48 to 72 h of culture at 35° C. and was defined at that concentration which produced more than 50% visible growth inhibition.
(In general: In broth dilution the organism is exposed to a series of concentrations in liquid medium.)

Experiment [8] relates to Cryptococcus gattii ATCC 32608. Description: Anti-fungal broth microdilution (MIC), fungus J. The experiment is classed as cell-based. The conditions noted are these: yeast protocol, more than 80% inhibition, 48 h. As to the method:
as §15, §16, §17, §18, §19

Experiment [9] has as its system Aspergillus fumigatus 322-384. Put plainly: Anti-fungal broth microdilution (MIC), fungus B. The class given is cell-based. Particulars: filamentous protocol, more than 50% growth inhibition, 48 to 72 h. On the procedure: as §15, §16, §17, §18, §19
The next experiment has as its system Candida albicans TS3. Put plainly: Anti-fungal broth microdilution (MIC), fungus F. The experiment is classed as cell-based. The conditions noted are these: yeast protocol, more than 80% inhibition, 48 h. On the procedure: as §15, §16, §17, §18, §19
In experiment [10] the test system is Cryptococcus neoformans H99. Description: Anti-fungal broth microdilution (MIC), fungus I. The experiment is classed as cell-based. Particulars: yeast protocol, more than 80% inhibition, 48 h. As to the method:
as §15, §16, §17, §18, §19

For experiment [11], the system named is Candida albicans ATCC 10231. Description: Anti-fungal broth microdilution (MIC), fungus D. Particulars: yeast protocol, more than 80% inhibition, 48 h. The class given is cell-based. On the procedure: as §15, §16, §17, §18, §19
The subject of experiment [12] is Candida albicans ATCC 90028. Description: Anti-fungal broth microdilution (MIC), fungus E. The class given is cell-based. The conditions noted are these: yeast protocol, more than 80% inhibition, 48 h. As to the method: as §15, §16, §17, §18, §19
The test system of experiment [13] is Aspergillus fumigatus 040-200167. Put plainly: Anti-fungal broth microdilution (MIC), fungus C. The class given is cell-based. The conditions noted are these: filamentous protocol, more than 50% growth inhibition, 48 to 72 h. As to the method:
as §15, §16, §17, §18, §19

The test system of experiment [14] is Candida parapsilosis ATCC 22019. Description: Anti-fungal broth microdilution (MIC), fungus G. The experiment is classed as cell-based. Particulars: yeast protocol, more than 80% inhibition, 48 h. On the procedure: as §15, §16, §17, §18, §19
For experiment [15], the system named is Cryptococcus neoformans ATCC 90112. Put plainly: Anti-fungal broth microdilution (MIC), fungus H. The experiment is classed as cell-based. Particulars: yeast protocol, more than 80% inhibition, 48 h. On the procedure:
as §15, §16, §17, §18, §19

As a reminder, the MIC is the least concentration at which growth counts as inhibited. Higher therefore signals weaker potency. Take `CCCCCCCCCCCCCCCCOP(=O)([O-])OCC[N+]1(C)CCCC1` [Compound 90]: in experiment [1], the MIC stood at 128 µg/mL (≈ 295 µM). For the same molecule, the inhibition at 31.6 µM in experiment [2] worked out at 55.5%; in experiment [3] it was 51.9%. The inhibition at 100 µM in experiment [4] came out at 54.6%. Besides, in [5], the “Mean % INH” value came to 54.0%.

As to `CCCCCCCCCCCCCCCCOP(=O)([O-])OCC[N+]1(C)CCCC(C(=O)OCC)C1` (centres unmarked) [Compound 260], the results for the inhibition at 31.6 µM in experiment [2] and in [3] were 45.2% and 40.5%, respectively. The inhibition at 100 µM in experiment [4] came to 56.1%. Besides, in experiment [5], the “Mean % INH” value was determined as 47.3%. In experiment [6], this molecule registered an MIC of 8 µg/mL (≈ 15.4 µM).

For the molecule `CCCCCCCC/C=C\CCCCCCCCCCCCOP(=O)([O-])OCC[N+](C)(C)C` [ErPC, (13Z)-docosenylphosphocholine, reference compound], the “MIC, fungus A” value in experiment [7] is more than 64 µg/mL. Also, the “MIC, fungus J” value in [8] is 1.5 µg/mL (≈ 3.06 µM). In addition, in experiment [9], the “MIC, fungus B” value is more than 64 µg/mL. Besides, in the experiment with Candida albicans TS3, the “MIC, fungus F” value was found to be 64 µg/mL (≈ 131 µM). The “MIC, fungus I” value in [10] was 3 µg/mL (≈ 6.13 µM). Besides, the “MIC, fungus D” value in experiment [11] was more than 64 µg/mL. In experiment [12], the “MIC, fungus E” value was more than 64 µg/mL. Moreover, the “MIC, fungus C” value in [13] is more than 64 µg/mL. The “MIC, fungus G” value in experiment [14] worked out at 64 µg/mL (≈ 131 µM). Further, the “MIC, fungus H” value in [15] is 4 µg/mL (≈ 8.17 µM).
